Values of other authors in US20160303050A1, “FORMULATIONS CONTAINING DIACEREIN AND METHODS OF LOWERING BLOOD LEVELS OF URIC ACID USING THE SAME” (TWi Biotechnology, Inc., priority 2015, published 2016).

Conditions: single oral administration of 50 mg, healthy volunteers

fasting Tmax (fasting): 2.4 h | Tmax with a meal (with a meal): 5.2 h
SMILES: CC(=O)Oc1cccc2c1C(=O)c1c(OC(C)=O)cc(C(=O)O)cc1C2=O [diacerein, 4,5-bis (acetyloxy) 9,10-dihydro-4,5-dihydroxy-9,10-dioxo-2-anthracenecarboxylic acid]
